ChEMBL document CHEMBL1149721, “New Alkaloids from Haplophyllum tuberculatum” (J Nat Prod, 1992)
Calls of active or inactive are those of the source. The rule behind the calls is not given here.

Each compound was assayed on Staphylococcus aureus (assay: Antimicrobial activity against Staphylococcus aureus at 100 ug/ml).
Assay type: functional, organism-based
`COc1c2ccoc2nc2c(CC=C(C)C)c(O)ccc12` was tested, and the Activity was “inactive”. For `CC(=O)O[C@@H](CC[C@]1(C)O[C@@H]1COc1ccc(CCNC(=O)c2ccccc2)cc1)C(C)(C)OC(C)=O`, the Activity was “inactive”. `CC(=O)O[C@@H](CC[C@]1(C)O[C@@H]1COc1ccc(CCNC(=O)C=C(C)C)cc1)C(C)(C)OC(C)=O` was tested, and the Activity was “inactive”. With `CC(=O)O[C@H](COc1ccc(CCNC(=O)c2ccccc2)cc1)[C@@]1(C)CC[C@@H](C(C)(C)OC(C)=O)O1` the Activity was “inactive”. With `CC(=O)OC(C)(C)[C@@H]1CC[C@](C)([C@H](O)COc2ccc(CCNC(=O)c3ccccc3)cc2)O1` the Activity was “inactive”.
